Data published in PubChem BioAssay (NCI).
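Exposure lasted 48 hours, with cells grown in 96-well plates and compounds tested at five concentrations. The concentration for 50% growth inhibition is given as GI50. TGI marks complete inhibition of growth.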

What was measured:
Assay in all cases: NCI anticancer screen, dose series, 48 h
[1] = system: HCT-116 colon
[2] = system: HCT-15 colon
[3] = system: HOP-92 NSCLC
[4] = system: HS 578T breast
[5] = system: K-562 leukemia
[6] = system: NCI-H226 lung
[7] = system: SK-OV-3 ovarian
[8] = system: U251 CNS
[9] = system: UACC-257 melanoma
[10] = system: EKVX NSCLC

Row | SMILES | GI50 [1] [µM] | TGI [1] [µM] | GI50 [2] [µM] | TGI [2] [µM] | GI50 [3] [µM] | TGI [3] [µM] | GI50 [4] [µM] | TGI [4] [µM] | GI50 [5] [µM] | TGI [5] [µM] | GI50 [6] [µM] | TGI [6] [µM] | GI50 [7] [µM] | TGI [7] [µM] | GI50 [8] [µM] | TGI [8] [µM] | GI50 [9] [µM] | TGI [9] [µM] | TGI [10] [µM] | GI50 [10] [µM]
1 | COc1ccc(-c2oncc2-c2cc(OC)c3c(c2)OCO3)cc1 | 3.28 | > 58.3 | 1.2 | > 100 | 2.08 | 28.6 | 2.49 | 21.2 | 0.441 | > 100 | 9.53 | > 93.8 | 3.76 | > 40.4 | 3.8 | > 87.3 | > 20 | > 100 |  | 
2 | O=S(=O)(c1ccccc1)C1CN(Cc2ccccc2)CCN(Cc2ccccc2)C1 |  | > 100 |  | > 100 |  |  |  | > 100 |  | > 100 |  | > 100 |  | > 100 |  | > 100 |  | > 100 | > 100 | 
3 | O=C(CN/C=C\C(=O)c1cc(Cl)ccc1Cl)c1ccccc1 | 21.2 | 43.1 | 18.3 | 37.6 |  |  | 25.7 | 61.3 | 61.2 | > 100 | 25.5 | 58.8 | 47.1 | > 100 | 33.1 | 99.6 | 24.7 | 61.9 | 99.2 | 31.1
4 | Cc1ccc(S(=O)(=O)N2C/C(=C\c3cc(F)cc(F)c3)C(=O)/C(=C/c3cc(F)cc(F)c3)C2)cc1 | 0.162 | 0.513 | 0.22 | 0.966 | 1.1 | 3.17 | 0.513 | > 43.1 | 0.0605 | 1.24 | 2.42 |  | 2.3 | 7.53 | 0.178 | 0.452 | 0.583 | 2.33 |  | 
5 | COc1ccc(/C=C/C(=O)c2ccc(NC(=O)CSc3nnc(-c4cc(OC)c(OC)c(OC)c4)o3)cc2)cc1 |  |  | 1.63 | 3.22 | 1.93 | 4.23 | 2.65 | 7.76 |  |  | 2.67 | 5.69 | 2.42 | 5.68 | 1.68 | 3.18 | 2.16 | 4.69 |  | 
6 | Cn1c(C2CC(C)(C)c3c2c2ccccc2n3C)cc2ccccc21 (centres undefined) |  | > 304 |  | > 304 |  | > 304 |  |  |  | > 304 |  | > 304 |  | > 304 |  | > 304 |  | > 304 | > 304 | 
7 | COc1cc([C@@H]2c3cc4c(cc3[C@@H](NC(=O)c3ccc([N+](=O)[O-])cc3)C3COC(=O)[C@@H]32)OCO4)cc(OC)c1O (some centres undefined) |  | 5.32 |  | 6.43 |  | 40.2 |  |  |  | > 100 |  | 1.82 |  | 1.89 |  | 1.21 |  | 59.6 | 6.55 | 
8 | N#Cc1ccccc1/C=N/O |  | > 61.6 |  | > 56.3 |  | > 100 |  |  |  | > 65.6 |  | > 100 |  | > 100 |  | > 100 |  | > 100 | > 100 | 
9 | Cc1cc2c(=O)cc(-c3ccc(C(=O)O)cc3)oc2c(C(=O)O)c1C |  | > 100 |  | > 100 |  | > 100 |  |  |  | > 100 |  | > 100 |  | > 100 |  | > 100 |  | > 100 | > 100 | 
10 | COc1ccc(/C=C2\CCCC3=C2N=C2SC=NN2C3c2ccc(OC)c(OC)c2)cc1OC (centres undefined) | 4.79 | 32.5 | 5.58 | 60.5 | 11.6 | 58.9 | 28.2 | > 100 | 6.09 | > 100 | 18.5 | 89.2 | 56.4 | > 100 | 22.7 | > 100 | 10.5 | > 100 |  | 
11 | O=C1CC23CC(=O)CC2(C1)c1ccccc1C3=O (centres undefined) |  | > 100 |  |  |  |  |  |  |  | > 100 |  | > 100 |  | > 100 |  | > 100 |  | > 100 | > 100 | 
12 | O=CN/C=C/c1ccccc1O |  | > 100 |  | > 100 |  | > 100 |  |  |  | > 31.6 |  | > 100 |  | > 100 |  | > 100 |  | > 100 | > 100 | 
13 | O=C(Cc1nc2ccccc2s1)NC12CC3CC(CC(C3)C1)C2 |  | > 100 |  | > 100 |  | > 100 |  |  |  | > 100 |  | > 100 |  | > 100 |  | > 100 |  | > 100 | > 100 | 
14 | C=C1CCC2C(C)(CO)C(O)CCC2(C)C1CC(O)C1=CCOC1=O (centres undefined) |  | 73.3 |  | > 100 |  | > 100 |  |  |  | > 100 |  | > 100 |  | > 100 |  | 50.7 |  | > 100 | > 100 | 
15 | Cc1ccc(C2CC(c3cccc(Nc4ccncc4)c3)=NN2c2ccc(Cl)cc2)cc1 (centres undefined) | 1.84 | 3.71 | 1.83 | 3.43 | 1.38 | 2.74 |  |  | 1.84 | 4.46 | 1.87 | 3.76 | 1.65 | 3.17 | 1.85 | 3.64 |  |  | 2.88 | 1.48
16 | FC(F)(F)c1ccccc1C=NC12CC3CC(CC(C3)C1)C2 |  | > 100 |  | > 100 |  |  |  |  |  | > 100 |  | > 100 |  | > 100 |  | > 100 |  | > 100 | > 100 | 
17 | COc1ccc2c(c1)CC[C@@H]1[C@@H]2CC[C@]2(C)c3c(cc(C(=O)c4ccccc4)c4sccc34)C[C@@H]12 | > 100 | > 100 | > 100 | > 100 |  |  | > 100 | > 100 | > 100 | > 100 | > 100 | > 100 | > 100 | > 100 | > 100 | > 100 | > 100 | > 100 | > 100 | > 100
18 | COC(=O)c1c/c(=N\NC(=O)CC(=O)Nc2ccc(C)cc2)c2ccccc2o1 |  | > 100 |  | > 100 |  | > 100 |  |  |  | > 100 |  | > 100 |  | > 100 |  | > 100 |  | > 100 | > 100 | 
19 | Clc1ccc(CCn2cncn2)c(Cl)c1 |  | > 100 |  | > 100 |  | > 100 |  |  |  | > 100 |  | > 100 |  | > 100 |  | > 100 |  | > 100 | > 100 | 
